Experimental data: PubChem BioAssay AID1963844 (Molecular Pharmacology Branch, DTP, NCI, 2024)

Test system: 422866-222-R5-J1-PDC complex spheroid viability
Assay: Anticancer human tumor 422866-222-R5-J1-PDC patient-derived pancreatic adenocarcinoma cell line growth inhibition [POLQ]
Details: for IC50: curve of first compound; for viability, T/C: stronger effect = lower value
Procedure: Multicellular complex tumor spheroid response to Polymerase (POL) inhibitors (novobiocin, ART-558, RP6685) in combination with a variety of drugs and investigational agents in selected tumor cell lines
The POL inhibitors (novobiocin, ART-558, and RP6685) were evaluated both individually and in combination with standard of care and investigational anticancer small molecules within a complex spheroid model of solid tumors. . Complex spheroids include a stromal component modeled by human endothelial cells (HUVEC) and fibroblasts modeled by human mesenchymal stem cells (MSCs). The concentration ranges selected for each drug and investigational agent were based upon clinically achievable concentrations if the clinical Cmax of the agent was known.
Compounds. The drugs and investigational agents: novobiocin (NSC847541), ART-558 (NSC835418), RP-6685 (NSC848927), peposertib (NSC802822), ceralasertib (NSC780249), elimusertib (NSC800525), camonsertib (NSC841442), AZD-1390 (NSC803789), olaparib (NSC753686), talazoparib (NSC767125), rucaparib (NSC756644), sotorasib (NSC818433), MRTX-1133 (NSC836407), SN-38 (NSC673596), topotecan (NSC609699), epotoside (NSC141540), doxorubicin (NSC123127), gemcitabine (NSC613327), 5-fluorouracil (NSC19893), paclitaxel (NSC125973), vemurafenib (NSC761431), MSA-2 (NSC828583), SN-011 (NSC837082), adavosertib (NSC754352), prexasertib (NSC758257), carboplatin (NSC241240) and oxaliplatin (NSC266046), were obtained from the National Cancer Institute (NCI) Developmental Therapeutics Program Chemical Repository (21). The FDA-approved anticancer drug set is available from the Developmental Therapeutics Program at https://dtp.cancer.gov/organization/dscb/obtaining/. […] The stock solutions were prepared in dimethyl sulfoxide (DMSO, Sigma-Aldrich, St. Louis, MO, cat. D2650), except for the platinum compounds which were prepared in saline (Quality Biological, Gaithersburg, MD, cat. 114-055-101), at 800-fold the tested concentration and stored at -70 degrees C prior to their use. All drugs and investigational agents were tested over a range starting from a high concentration at or near the clinical Cmax and decreasing in half-log increments. If the clinical Cmax for an agent had not been determined, the highest concentration tested was 10 microM, except for SN-38, which was tested at a high concentration of 1 microM.
Cell Culture. All cells were maintained in an incubator at 37 degrees C and 5% CO2 with 95% humidity. The PDC lines were cultured according to standard operating procedures established by the NCI PDMR (https://pdmr.cancer.gov). Table 3 of the manuscript, lists the cell lines along with the number of the three cell types plated to form the mct-spheroids and media for tumor cell growth. After thawing, all PDC lines, except 997537-175-T-J1-PDC and 415267-285-R-J2-PDC, were cultured in Matrigel-coated flasks prepared with a working solution of 1X Ham's F-12 nutrient mix, without supplementation (Thermo Fisher Scientific, cat. 11765054), 100 U/mL penicillin-streptomycin (Thermo Fisher Scientific, cat. 15140122), and 2.5% Matrigel (Corning Inc., Corning, NY, cat. 354248) for the first three passages. The two PDC lines 997537-175-T-J1-PDC and 415267-285-R-J2-PDC were cultured on uncoated flasks. The 857933-349-R-J2-PDC line was cultured in 6C/Colon 1B media containing advanced DMEM/F-12 (Thermo Fisher Scientific, cat. 12634028), 10 mM HEPES (Thermo Fisher Scientific, cat. 15630080), 1X GlutaMAX supplement (Thermo Fisher Scientific, cat. 35050061), 0.1 mg/mL primocin (InvivoGen, San Diego, CA, cat. ant-pm-2), 10% defined fetal bovine serum, heat inactivated (HyClone Laboratories Inc., Logan, UT, cat. SH30070.03HI), 50% L-WRN conditioned media (ATCC, cat. CRL-3276), 1.25 mM N-Acetyl-L-cysteine (Sigma-Aldrich, cat. A9165), 10 mM nicotinamide (Sigma-Aldrich, cat. N0636), 1X B-27 supplement (Thermo Fisher Scientific, cat. 17504044), 1X N-2 supplement (Thermo Fisher Scientific, cat. […]

[1] = second compound 0.0316 µM, first compound 0.0316 µM
[2] = second compound 0.0316 µM, first compound 0.1 µM
[3] = second compound 0.0316 µM, first compound 0.316 µM
[4] = second compound 0.0316 µM, first compound 1 µM
[5] = second compound 0.0316 µM, first compound 3.16 µM
[6] = second compound 0.0316 µM, first compound 10 µM
[7] = second compound 0.1 µM, first compound 0.0316 µM
[8] = second compound 0.1 µM, first compound 0.1 µM
[9] = second compound 0.1 µM, first compound 0.316 µM
[10] = second compound 0.1 µM, first compound 1 µM
[11] = second compound 0.1 µM, first compound 3.16 µM
[12] = second compound 0.1 µM, first compound 10 µM
[13] = second compound 0.316 µM, first compound 0.0316 µM
[14] = second compound 0.316 µM, first compound 0.1 µM
[15] = second compound 0.316 µM, first compound 0.316 µM
[16] = second compound 0.316 µM, first compound 1 µM
[17] = second compound 0.316 µM, first compound 3.16 µM
[18] = second compound 0.316 µM, first compound 10 µM
[19] = second compound 1 µM, first compound 0.0316 µM
[20] = second compound 1 µM, first compound 0.1 µM
[21] = second compound 1 µM, first compound 0.316 µM
[22] = second compound 1 µM, first compound 1 µM
[23] = second compound 1 µM, first compound 3.16 µM
[24] = second compound 1 µM, first compound 10 µM
[25] = second compound 3.16 µM, first compound 0.0316 µM
[26] = second compound 3.16 µM, first compound 0.1 µM
[27] = second compound 3.16 µM, first compound 0.316 µM
[28] = second compound 3.16 µM, first compound 1 µM
[29] = second compound 3.16 µM, first compound 3.16 µM
[30] = second compound 3.16 µM, first compound 10 µM
[31] = second compound 10 µM, first compound 0.0316 µM
[32] = second compound 10 µM, first compound 0.1 µM
[33] = second compound 10 µM, first compound 0.316 µM
[34] = second compound 10 µM, first compound 1 µM
[35] = second compound 10 µM, first compound 3.16 µM
[36] = second compound 10 µM, first compound 10 µM
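Further: spheroids exposed to compounds for one week before readout.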
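Wherever viability, T/C is given: percent of DMSO vehicle wells luminescence so 100% = untreated viability.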

O=C(c1cc(Cc2n[nH]c(=O)c3ccccc23)ccc1F)N1CCN(C(=O)C2CC2)CC1 + Nc1ccc(C#CCN(C(=O)Cc2ncc(C(F)(F)F)cc2C(F)(F)F)c2ccc(F)cc2)nn1
IC50 (second compound 0.0316 µM): > 10 µM | IC50 (second compound 0.1 µM): > 10 µM | IC50 (second compound 0.316 µM): > 10 µM | IC50 (second compound 1 µM): > 10 µM | IC50 (second compound 3.16 µM): > 10 µM | IC50 (second compound 10 µM): > 10 µM | viability, T/C [1]: 86.6% | viability, T/C [2]: 109% | viability, T/C [3]: 88.2% | viability, T/C [4]: 97.9% | viability, T/C [5]: 72.8% | viability, T/C [6]: 73.6% | viability, T/C [7]: 91.7% | viability, T/C [8]: 95.8% | viability, T/C [9]: 97.5% | viability, T/C [10]: 93.8% | viability, T/C [11]: 80.2% | viability, T/C [12]: 61.4% | viability, T/C [13]: 101% | viability, T/C [14]: 103% | viability, T/C [15]: 99.1% | viability, T/C [16]: 102% | viability, T/C [17]: 76.2% | viability, T/C [18]: 65.8% | viability, T/C [19]: 105% | viability, T/C [20]: 90.1% | viability, T/C [21]: 105% | viability, T/C [22]: 84.5% | viability, T/C [23]: 70.2% | viability, T/C [24]: 53.7% | viability, T/C [25]: 112% | viability, T/C [26]: 109% | viability, T/C [27]: 111% | viability, T/C [28]: 90.3% | viability, T/C [29]: 84.2% | viability, T/C [30]: 65.9% | viability, T/C [31]: 96.8% | viability, T/C [32]: 104% | viability, T/C [33]: 131% | viability, T/C [34]: 115% | viability, T/C [35]: 91.9% | viability, T/C [36]: 68.6%

O=c1[nH]cc(F)c(=O)[nH]1 + Nc1ccc(C#CCN(C(=O)Cc2ncc(C(F)(F)F)cc2C(F)(F)F)c2ccc(F)cc2)nn1
IC50 (second compound 0.0316 µM): > 10 µM | IC50 (second compound 0.1 µM): > 10 µM | IC50 (second compound 0.316 µM): > 10 µM | IC50 (second compound 1 µM): > 10 µM | IC50 (second compound 3.16 µM): > 10 µM | IC50 (second compound 10 µM): > 10 µM | viability, T/C [1]: 108% | viability, T/C [2]: 102% | viability, T/C [3]: 89.4% | viability, T/C [4]: 88.2% | viability, T/C [5]: 89.1% | viability, T/C [6]: 79.3% | viability, T/C [7]: 113% | viability, T/C [8]: 90.9% | viability, T/C [9]: 92.4% | viability, T/C [10]: 96.2% | viability, T/C [11]: 83.2% | viability, T/C [12]: 76.7% | viability, T/C [13]: 99.2% | viability, T/C [14]: 106% | viability, T/C [15]: 100% | viability, T/C [16]: 93.4% | viability, T/C [17]: 75.9% | viability, T/C [18]: 84.7% | viability, T/C [19]: 101% | viability, T/C [20]: 111% | viability, T/C [21]: 108% | viability, T/C [22]: 92.4% | viability, T/C [23]: 90.1% | viability, T/C [24]: 83.4% | viability, T/C [25]: 95% | viability, T/C [26]: 132% | viability, T/C [27]: 102% | viability, T/C [28]: 104% | viability, T/C [29]: 88.3% | viability, T/C [30]: 82.6% | viability, T/C [31]: 101% | viability, T/C [32]: 118% | viability, T/C [33]: 97.1% | viability, T/C [34]: 100% | viability, T/C [35]: 78.3% | viability, T/C [36]: 83.8%
